Several values for one entry are separate records, joined by “and”; a condition that tells them apart may be missing. Equal entries are not always repeated. Marks after values point to notes of the source that are not given here.
How the values were obtained:
[1] = target: T1, (Ovis aries, UniProt P05979); experiment: In vitro human COX-1 enzymatic inhibitory activity (Cayman COX inhibitor screening assay kit); assay type: biochemical; conditions: mean ± SEM of triplicate determinations
T1 construct: purchased Cayman Chemicals Inc., Ann Arbor, MI, USA 560131
T1 sequence (P05979 25-600): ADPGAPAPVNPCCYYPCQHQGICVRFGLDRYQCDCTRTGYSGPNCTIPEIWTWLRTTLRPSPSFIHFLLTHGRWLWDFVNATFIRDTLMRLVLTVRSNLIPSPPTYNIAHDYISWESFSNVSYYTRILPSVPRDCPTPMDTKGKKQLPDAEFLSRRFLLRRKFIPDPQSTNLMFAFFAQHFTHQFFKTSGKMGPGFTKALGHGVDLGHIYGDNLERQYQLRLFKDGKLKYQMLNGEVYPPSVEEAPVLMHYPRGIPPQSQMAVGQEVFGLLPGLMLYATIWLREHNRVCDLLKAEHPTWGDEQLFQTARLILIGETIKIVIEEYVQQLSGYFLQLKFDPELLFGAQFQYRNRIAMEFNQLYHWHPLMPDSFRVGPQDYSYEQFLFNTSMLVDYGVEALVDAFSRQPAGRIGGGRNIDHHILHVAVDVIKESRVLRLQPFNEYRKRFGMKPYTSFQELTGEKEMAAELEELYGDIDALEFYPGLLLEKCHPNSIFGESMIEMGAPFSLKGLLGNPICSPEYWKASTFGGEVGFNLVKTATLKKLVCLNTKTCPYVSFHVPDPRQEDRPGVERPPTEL
Procedure: (§1) Inhibitory activities were defined as a test compound concentration achieving 50% human COX-1 or human COX-2 inhibition. The selectivity of compounds was referred to as a compound’s selectivity index values calculated as IC50 (COX-1)/IC50 (COX-2).
(§2) In vitro human COX-1 and human COX-2 enzymatic inhibitory activity of the tested compounds as well as the reference drugs was carried out according to the previously mentioned procedures; for details, see Page S15, Supplementary File.
(§3) 4.2. Biological screening
(§4) 4.2.1. In vitro human COX-1 and human COX-2 enzymatic inhibitory activities In vitro human COX-1 and human COX-2 enzymatic inhibitory activity of the tested compounds as well as the reference drugs was carried out according to the previously mentioned procedures [1][2]depending on Cayman colorimetric COX (ovine) inhibitor screening assay kit (Catalog No.
(§5) All reagents, test solutions and experimental procedures were performed in correspondence to both the manufacturer’s instructions and previously reported methods. Briefly, […] of different concentrations of tested compound solutions were added to a series of supplied reaction buffer solutions (960 µL, 0.1 M Tris-HCl, pH 8.0 containing 5 mM EDTA and 2 mM phenol) with either COX-1 or COX-2 (10 µL) enzyme in the presence of heme (10 µL). 10 µL of Arachidonic Acid (100 µM) solution were added to the mixtures of the enzyme and tested compounds, After incubating for 5 min at 25 °C followed by stopping COX reaction by adding of 50 µL of 1 M HCl. Moreover, after adding 100 µL of saturated stannous chloride solution, the absorbance was measured spectrophotometrically using plate reader. measuring the […]
(§6) percentage of human COX-1 or human COX-2 enzymatic inhibition of five different concentrations of each compound and then concentration-inhibition response curve were plotted to obtain IC50 values(three determinations). […]

[2] = target: T2, human COX-2 (Homo sapiens, UniProt P35354); experiment: In vitro human COX-2 enzymatic inhibitory activity (Cayman COX inhibitor screening assay kit); assay type: biochemical; conditions: for SI COX-1/COX-2: COX-2 selectivity index: COX-1 IC50/COX-2 IC50; for IC50: mean ± SEM of triplicate determinations
T2 construct: purchased Cayman Chemicals Inc., Ann Arbor, MI, USA 560131
T2 sequence (P35354 18-604): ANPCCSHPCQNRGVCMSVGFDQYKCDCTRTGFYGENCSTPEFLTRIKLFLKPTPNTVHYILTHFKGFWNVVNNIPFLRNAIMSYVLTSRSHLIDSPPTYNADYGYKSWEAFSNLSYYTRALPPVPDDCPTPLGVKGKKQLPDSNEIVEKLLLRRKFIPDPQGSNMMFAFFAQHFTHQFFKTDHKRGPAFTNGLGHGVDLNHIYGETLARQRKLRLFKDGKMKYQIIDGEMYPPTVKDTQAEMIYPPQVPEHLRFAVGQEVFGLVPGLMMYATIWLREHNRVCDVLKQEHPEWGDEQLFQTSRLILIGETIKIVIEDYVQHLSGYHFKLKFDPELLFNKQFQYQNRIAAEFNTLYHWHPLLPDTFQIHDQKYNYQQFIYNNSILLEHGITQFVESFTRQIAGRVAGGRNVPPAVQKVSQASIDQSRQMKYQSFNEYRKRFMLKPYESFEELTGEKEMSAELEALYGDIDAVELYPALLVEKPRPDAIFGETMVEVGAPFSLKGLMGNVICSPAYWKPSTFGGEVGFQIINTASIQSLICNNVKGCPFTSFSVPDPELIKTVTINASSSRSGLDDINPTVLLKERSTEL
Procedure: as §1, §2, §3, §4, §5, §6

[3] = system: carrageenan-induced paw edema; experiment: In vivo carrageenan-induced paw edema in mice; conditions: for Thickness of Edema, 0 h / percentage anti-inflammatory activity (AI%), 2 h / Thickness of Edema, 2 h / percentage anti-inflammatory activity (AI%), 4 h / Thickness of Edema, 4 h / percentage anti-inflammatory activity (AI%), 6 h / Thickness of Edema, 6 h / percentage anti-inflammatory activity (AI%), 8 h / Thickness of Edema, 8 h: 10 µmol/kg b.wt po; for Thickness of Edema, 0 h / Thickness of Edema, 2 h / Thickness of Edema, 4 h / Thickness of Edema, 6 h / Thickness of Edema, 8 h: mean ± SEM, n = 5; for percentage anti-inflammatory activity (AI%), 2 h / Thickness of Edema, 2 h: 2 h after carrageenan; for percentage anti-inflammatory activity (AI%), 4 h / Thickness of Edema, 4 h: 4 h after carrageenan; for percentage anti-inflammatory activity (AI%), 6 h / Thickness of Edema, 6 h: 6 h after carrageenan; for percentage anti-inflammatory activity (AI%), 8 h / Thickness of Edema, 8 h: 8 h after carrageenan; for ED50: Mus musculus, paw edema inhibition 8 h after carrageenan, doses 5, 10, 20, 30 and 40 µmol/kg, read-out: ED50 (95% Confidence Level)
[4] = system: prostaglandin E2 (PGE2); experiment: In vivo estimation of rat serum prostaglandin E2 (PGE2); conditions: carrageenan-injected rats, 10 µmol/kg b.wt po, after 8 h; for PGE2 Serum Conc.: mean ± SEM, n = 5
Procedure: Measuring plasma levels of prostaglandin E2 is one of the substantial parameters in confirming the in vivo COX-2 inhibition.
(approved by HU-IACUC). For more details, see Page S16, Supplementary File. […]
4.2.4. Estimation of rat serum prostaglandin E2 (PGE2) […]
procedure using EIA PGE2 kit (Aldrich, Steinheim, Germany). The kits as well as blood samples were […]
to a monoclonal antibody to PGE2 in kit. Excess reagents were removed followed by adding the substrate was added and incubated for short time. When a yellow color generate the optical density […]

IC50 [1] [µM] | SI COX-1/COX-2 [2] | IC50 [2] [µM] | melting point [°C] | SMILES | Thickness of Edema, 0 h [3] [mm] | percentage anti-inflammatory activity (AI%), 2 h [3] [%] | Thickness of Edema, 2 h [3] [mm] | percentage anti-inflammatory activity (AI%), 4 h [3] [%] | Thickness of Edema, 4 h [3] [mm] | percentage anti-inflammatory activity (AI%), 6 h [3] [%] | Thickness of Edema, 6 h [3] [mm] | percentage anti-inflammatory activity (AI%), 8 h [3] [%] | Thickness of Edema, 8 h [3] [mm] | ED50 [3] [µmol/kg] | % Inhibition of PGE2 production [4] [%] | PGE2 Serum Conc. [4] | % Inhibition of PGE2 production ([4]; listed as celecoxib) [%]
9.13 ± 0.0882 | 114.13 | 0.08 ± 0.0006 | 205 to 207 | CC(=NNC(=O)C(C)c1ccc(CC(C)C)cc1)c1nnn(-c2ccc(S(N)(=O)=O)cc2)c1C (stereo not drawn) [Compound 6a, 4-(4-(1-(2-(2-(4-Isobutylphenyl)propanoyl)hydrazineylidene)ethyl)-5-methyl-1H-1,2,3-triazol-1-yl)benzenesulfonamide] | – | – | – | – | – | – | – | – | – | – | – | – | –
– | – | – | – | Cc1ccc(-c2cc(C(F)(F)F)nn2-c2ccc(S(N)(=O)=O)cc2)cc1 [Celecoxib, celecoxib, reference compound] | 2.10 ± 0.005 | 70.86 | 2.54 ± 0.007 | 79.27 | 2.44 ± 0.011 | 87.28 | 2.32 ± 0.010 | 89.01 | 2.30 ± 0.009 | 16.2 | 78.62 | 157.245 ± 7.33 ^c,d pg/mL | 78.62
11.17 ± 0.0333 | 159.57 | 0.07 ± 0.0006 | 257 to 259 | CC(=NNC(=O)C(C)c1ccc(CC(C)C)cc1)c1nnn(-c2ccc(S(=O)(=O)Nc3ncccn3)cc2)c1C (stereo not drawn) [Compound 6c, 4-(4-(1-(2-(2-(4-Isobutylphenyl)propanoyl)hydrazineylidene)ethyl)-5-methyl-1H-1,2,3-triazol-1-yl)-N-(pyrimidin-2-yl)benzenesulfonamide] | – | – | – | – | – | – | – | – | – | – | – | – | –
5.93 ± 0.0882 | 65.89 | 0.09 ± 0.0006 | – | [N-]=[N+]=Nc1ccc(S(=O)(=O)Nc2ncccn2)cc1 [Compound 1c, 4-Azido-N-(pyrimidin-2-yl)benzenesulfonamide] | – | – | – | – | – | – | – | – | – | – | – | – | –
– | – | – | – | O=C(O)Cc1ccccc1Nc1c(Cl)cccc1Cl [Diclofenac, diclofenac, reference compound] | 2.08 ± 0.006 | 41.72 | 2.96 ± 0.009 | 55.49 | 2.81 ± 0.009 | 67.63 | 2.64 ± 0.01 | 72.53 | 2.58 ± 0.01 | 18.4 | 72.27 | 203.973 ± 6.35 ^c,d pg/mL | –
4.6 ± 0.115 | 46 | 0.1 ± 0.0033 | – | Cc1ccnc(NS(=O)(=O)c2ccc(N=[N+]=[N-])cc2)n1 [Compound 1d, 4-Azido-N-(4-methylpyrimidin-2-yl)benzenesulfonamide] | – | – | – | – | – | – | – | – | – | – | – | – | –

SMILES | IC50 [1] [µM] | SI COX-1/COX-2 [2] | IC50 [2] [µM] | melting point [°C] | Thickness of Edema, 0 h [3] [mm] | percentage anti-inflammatory activity (AI%), 2 h [3] [%] | Thickness of Edema, 2 h [3] [mm] | percentage anti-inflammatory activity (AI%), 4 h [3] [%] | Thickness of Edema, 4 h [3] [mm] | percentage anti-inflammatory activity (AI%), 6 h [3] [%] | Thickness of Edema, 6 h [3] [mm] | percentage anti-inflammatory activity (AI%), 8 h [3] [%] | Thickness of Edema, 8 h [3] [mm] | ED50 [3] [µmol/kg] | % Inhibition of PGE2 production [4] [%] | PGE2 Serum Conc. [4] | % Inhibition of PGE2 production ([4]; listed as celecoxib) [%]
CC(=NNC(=O)C(C)c1ccc(CC(C)C)cc1)c1nnn(-c2ccc(S(=O)(=O)Nc3nccs3)cc2)c1C (stereo not drawn) [Compound 6b, 4-(4-(1-(2-(2-(4-Isobutylphenyl)propanoyl)hydrazineylidene)ethyl)-5-methyl-1H-1,2,3-triazol-1-yl)-N-(thiazol-2-yl)benzenesulfonamide] | 13.17 ± 0.12 | 329 and 329.25 | 0.04 ± 0.0007 | – | 2.14 ± 0.006 | 86.75 | 2.34 ± 0.009 | 94.51 | 2.23 ± 0.009 | 97.69 | 2.18 ± 0.009 | 99.45 | 2.15 ± 0.007 | 11.7 | 90.70 | 68.388 ± 7.13 ^c,d pg/mL | –
CC(=NNC(=O)c1ccccc1O)c1nnn(-c2ccc(S(=O)(=O)Nc3nccc(C)n3)cc2)c1C [Compound 6j, 4-(4-(1-(2-(2-Hydroxybenzoyl)hydrazineylidene)ethyl)-5-methyl-1H-1,2,3-triazol-1-yl)-N-(4-methylpyrimidin-2-yl)benzenesulfonamide] | 12.5 ± 0.0577 | 312 and 312.5 | 0.04 ± 0.0006 | – | 2.08 ± 0.007 | 73.51 | 2.48 ± 0.005 | 82.32 | 2.37 ± 0.009 | 88.44 | 2.28 ± 0.011 | 91.21 | 2.24 ± 0.009 | 13.4 | 86.34 | 100.435 ± 5.66 ^c,d pg/mL | –
CC(=NNC(=O)Cc1ccccc1Nc1c(Cl)cccc1Cl)c1nnn(-c2ccc(S(=O)(=O)Nc3nccs3)cc2)c1C [Compound 6e, 4-(4-(1-(2-(2-(2-((2,6-Dichlorophenyl)amino)phenyl)acetyl)hydrazineylidene)ethyl)-5-methyl-1H-1,2,3-triazol-1-yl)-N-(thiazol-2-yl)benzenesulfonamide] | 10.23 ± 0.0333 | 204 and 204.6 | 0.05 ± 0.0006 | – | 2.12 ± 0.007 | 58.28 | 2.75 ± 0.008 | 68.90 | 2.63 ± 0.010 | 75.72 | 2.54 ± 0.009 | 78.02 | 2.52 ± 0.006 | 18.2 | 74.80 | 185.329 ± 6.79 ^c,d pg/mL | –

Reference: paper PMC9609428, “Rational Design and Synthesis of New Selective COX-2 Inhibitors with In Vivo PGE2-Lowering Activity by Tethering Benzenesulfonamide and 1,2,3-Triazole Pharmacophores to Some NSAIDs” (Pharmaceuticals, 2022)
